Experimental data taken from ChEMBL document CHEMBL1201862, “PubChem BioAssay data set” (2004).
Calls of active or inactive are those of the source.

Assays:
[1] = molecular target: Adenosylmethionine-8-amino-7-oxononanoate aminotransferase (Mycobacterium tuberculosis, UniProt P9WQ81); test: Mycobacterium tuberculosis BioA enzyme inhibitor Measured in Biochemical System Using Plate Reader - 2163-02_Inhibitor_Dose_CherryPick_Activity.; format: functional, Mycobacterium tuberculosis UT205
[2] = molecular target: T1, High affinity choline transporter 1 (Homo sapiens, UniProt Q9GZV3); test: CHT inhibitors, dose response, cell-based, 5-point CRC, membrane potential dye (AID 504840); format: functional
T1 sequence (Q9GZV3 whole entry): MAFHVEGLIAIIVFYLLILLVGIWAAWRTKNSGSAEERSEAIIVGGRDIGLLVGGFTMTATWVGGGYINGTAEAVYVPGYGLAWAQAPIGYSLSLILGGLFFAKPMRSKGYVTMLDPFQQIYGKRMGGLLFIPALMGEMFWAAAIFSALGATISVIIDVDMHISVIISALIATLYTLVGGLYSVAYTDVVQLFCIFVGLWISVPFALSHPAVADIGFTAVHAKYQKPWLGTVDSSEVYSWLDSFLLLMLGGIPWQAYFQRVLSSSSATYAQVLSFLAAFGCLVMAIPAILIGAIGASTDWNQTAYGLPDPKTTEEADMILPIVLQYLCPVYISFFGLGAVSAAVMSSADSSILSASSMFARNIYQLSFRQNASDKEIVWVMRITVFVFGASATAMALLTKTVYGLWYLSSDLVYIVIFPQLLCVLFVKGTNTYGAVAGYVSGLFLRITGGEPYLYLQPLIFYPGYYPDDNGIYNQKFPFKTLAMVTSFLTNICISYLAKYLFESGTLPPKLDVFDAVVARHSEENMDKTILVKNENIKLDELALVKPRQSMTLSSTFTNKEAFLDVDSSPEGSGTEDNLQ

[3] = molecular target: T1, High affinity choline transporter 1; test: CHT inhibitors, dose response, cell-based, 10-point CRC, membrane potential dye (AID 588401); format: functional;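 also: membrane potential dye fluorescence of choline-evoked depolarization via CHT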
[4] = molecular target: 72 kDa type IV collagenase (Homo sapiens, UniProt P08253); test: Dose Response validation of uHTS RPN11 inhibitor hits using a MMP-2 Fluorescence assay.; format: functional
72 kDa type IV collagenase, sequence (P08253 whole entry): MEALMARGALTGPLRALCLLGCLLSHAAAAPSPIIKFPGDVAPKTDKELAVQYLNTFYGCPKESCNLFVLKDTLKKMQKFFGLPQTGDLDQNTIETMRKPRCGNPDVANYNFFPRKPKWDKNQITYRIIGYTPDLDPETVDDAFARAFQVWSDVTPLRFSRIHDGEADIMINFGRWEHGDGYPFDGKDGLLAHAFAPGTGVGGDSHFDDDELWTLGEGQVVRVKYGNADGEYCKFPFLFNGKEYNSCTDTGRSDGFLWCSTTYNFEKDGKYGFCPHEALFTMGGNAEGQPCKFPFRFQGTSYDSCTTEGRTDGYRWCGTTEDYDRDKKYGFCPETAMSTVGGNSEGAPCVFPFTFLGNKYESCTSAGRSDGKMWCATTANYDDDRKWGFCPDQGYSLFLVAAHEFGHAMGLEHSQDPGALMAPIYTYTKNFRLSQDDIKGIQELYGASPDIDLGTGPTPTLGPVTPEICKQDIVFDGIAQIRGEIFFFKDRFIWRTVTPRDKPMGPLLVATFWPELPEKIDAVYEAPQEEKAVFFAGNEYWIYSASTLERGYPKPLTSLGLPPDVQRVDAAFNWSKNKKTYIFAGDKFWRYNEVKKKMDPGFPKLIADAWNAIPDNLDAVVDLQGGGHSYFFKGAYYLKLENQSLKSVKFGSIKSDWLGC

[5] = molecular target: 26S proteasome non-ATPase regulatory subunit 14 (Homo sapiens, UniProt O00487); test: inhibition of proteasome subunit RPN11 – biochemical, fluorescence polarization, uHTS hits, confirmation (AID 602368); format: functional
26S proteasome non-ATPase regulatory subunit 14, sequence (O00487 whole entry): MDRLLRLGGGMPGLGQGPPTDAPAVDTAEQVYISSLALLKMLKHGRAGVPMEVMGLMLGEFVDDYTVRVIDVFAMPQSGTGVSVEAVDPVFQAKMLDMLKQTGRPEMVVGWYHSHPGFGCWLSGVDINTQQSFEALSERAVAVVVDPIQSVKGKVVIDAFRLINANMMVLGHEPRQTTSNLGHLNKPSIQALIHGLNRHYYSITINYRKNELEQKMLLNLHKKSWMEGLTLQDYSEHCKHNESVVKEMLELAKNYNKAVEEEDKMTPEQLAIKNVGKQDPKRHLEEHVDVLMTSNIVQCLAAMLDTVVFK

Prothrombin = Prothrombin (Bos taurus, UniProt P00735); test: thrombin inhibition, dose response, biochemical, fluorescence polarization, uHTS hits (AID 602369); format: functional
[6] = molecular target: T2, Corticotropin-releasing factor receptor 2/Corticotropin-releasing factor-binding protein (Homo sapiens, UniProt P24387+Q13324); test: activators of CRF receptor 2 with binding protein – uHTS hits, confirmation (AID 602473); format: functional; details: read-out: EC50_Mean
T2 sequence (Q13324 whole entry): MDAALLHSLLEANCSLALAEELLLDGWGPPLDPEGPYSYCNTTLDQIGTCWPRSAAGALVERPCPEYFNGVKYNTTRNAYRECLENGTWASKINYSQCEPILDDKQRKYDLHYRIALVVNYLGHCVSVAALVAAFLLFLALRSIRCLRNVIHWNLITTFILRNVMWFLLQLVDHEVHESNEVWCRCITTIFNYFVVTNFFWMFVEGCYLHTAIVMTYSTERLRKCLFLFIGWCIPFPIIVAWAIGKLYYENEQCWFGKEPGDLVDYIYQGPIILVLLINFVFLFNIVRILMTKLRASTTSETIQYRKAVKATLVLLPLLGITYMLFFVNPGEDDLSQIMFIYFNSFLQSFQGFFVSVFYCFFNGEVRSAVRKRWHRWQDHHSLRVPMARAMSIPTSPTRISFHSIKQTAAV
T2 sequence (P24387 whole entry): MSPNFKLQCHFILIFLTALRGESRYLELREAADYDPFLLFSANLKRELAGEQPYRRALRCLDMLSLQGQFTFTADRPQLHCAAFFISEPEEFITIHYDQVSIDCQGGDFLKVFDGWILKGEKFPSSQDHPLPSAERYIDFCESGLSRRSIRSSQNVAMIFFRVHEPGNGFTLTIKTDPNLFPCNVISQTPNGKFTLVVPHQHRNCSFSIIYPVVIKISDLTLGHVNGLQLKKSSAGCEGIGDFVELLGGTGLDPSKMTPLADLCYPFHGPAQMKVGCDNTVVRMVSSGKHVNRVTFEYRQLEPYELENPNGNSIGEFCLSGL

[7] = molecular target: T2, Corticotropin-releasing factor receptor 2/Corticotropin-releasing factor-binding protein; test: Dose Response confirmation of uHTS hits for small molecule antagonists of the CRF-binding protein and CRF-R2 receptor complex.; format: functional; details: read-out: IC50_Mean
[8] = CRF-BP/CRF-R2 complex antagonists, dose response, cell-based, uHTS hits, 384-well (AID 651639); format: functional, Homo sapiens; details: read-out: IC50_Mean
[9] = molecular target: Glucose-6-phosphate 1-dehydrogenase (Homo sapiens, UniProt P11413); test: human G6PD enzyme inhibitors, dose response, selectivity assay for P. falciparum G6PD inhibitor project, biochemical, fluorescence (AID 504792); format: functional
Glucose-6-phosphate 1-dehydrogenase, sequence (P11413 whole entry): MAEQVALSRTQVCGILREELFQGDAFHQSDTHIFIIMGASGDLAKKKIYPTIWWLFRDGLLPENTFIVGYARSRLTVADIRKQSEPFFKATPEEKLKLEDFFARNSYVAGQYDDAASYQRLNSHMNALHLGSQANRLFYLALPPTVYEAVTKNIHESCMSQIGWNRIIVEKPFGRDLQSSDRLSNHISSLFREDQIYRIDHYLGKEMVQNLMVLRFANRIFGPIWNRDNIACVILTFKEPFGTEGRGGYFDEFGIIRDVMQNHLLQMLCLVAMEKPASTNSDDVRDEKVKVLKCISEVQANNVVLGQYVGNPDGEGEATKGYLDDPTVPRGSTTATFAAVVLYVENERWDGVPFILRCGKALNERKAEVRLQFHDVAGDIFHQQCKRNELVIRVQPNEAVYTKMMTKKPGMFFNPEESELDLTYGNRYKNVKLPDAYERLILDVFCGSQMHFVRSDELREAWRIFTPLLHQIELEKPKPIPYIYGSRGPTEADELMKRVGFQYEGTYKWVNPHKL

[10] = miR-122 activators in hepatoma reporter cells, dose response, cell-based, Huh7 psiCHECK-miR122, Renilla luciferase, cherry-picked (AID 651956); format: functional;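 also: huh7 hepatoma cells stably carrying a psiCHECK-2 miR-122 sensor plasmid; renilla luciferase signal reporting endogenous miR-122 activity after 48 h compound exposure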
[11] = molecular target: T3, Heat shock factor protein 1 (Mus musculus, UniProt P38532); test: HSF1 potentiators in luciferase reporter cells, confirmation, cell-based, NIH3T3, luminescence, dose retest (AID 435004); format: functional;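 also: stress induced by proteasome inhibitor MG132 added 30 min after compound; luciferase reporter driven by HSF1 response element in NIH3T3 cells; actives raise luminescence as potentiators of the MG132 stress response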
T3 sequence (P38532 whole entry): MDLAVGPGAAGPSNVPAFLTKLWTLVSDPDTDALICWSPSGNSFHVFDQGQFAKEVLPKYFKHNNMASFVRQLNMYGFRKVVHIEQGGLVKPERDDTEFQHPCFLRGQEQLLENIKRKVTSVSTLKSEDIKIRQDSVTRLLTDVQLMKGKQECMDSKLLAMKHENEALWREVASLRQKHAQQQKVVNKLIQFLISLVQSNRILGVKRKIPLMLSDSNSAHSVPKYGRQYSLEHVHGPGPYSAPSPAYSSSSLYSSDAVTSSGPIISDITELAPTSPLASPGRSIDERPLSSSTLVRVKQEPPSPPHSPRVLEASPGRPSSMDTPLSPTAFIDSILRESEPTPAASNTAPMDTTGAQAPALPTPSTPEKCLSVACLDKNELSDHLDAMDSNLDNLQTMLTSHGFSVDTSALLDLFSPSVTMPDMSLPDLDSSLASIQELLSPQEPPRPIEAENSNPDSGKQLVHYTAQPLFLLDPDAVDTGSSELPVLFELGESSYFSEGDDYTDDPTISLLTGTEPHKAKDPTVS

H9c2 = test: cells; format: functional, cell-based; details: Rattus norvegicus, H9c2, Myocardium;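 also: confirmatory concentration-response retest of ultra-high-throughput screening hits for modulation of myocardial damage; cell death induced by hydrogen peroxide oxidative stress; compound pretreatment for 60 min then peroxide exposure for 2 h; potency is for protecting the cells against peroxide damage rather than for killing them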
[12] = molecular target: Ras and Rab interactor 1/Tyrosine-protein kinase ABL1 (Homo sapiens, UniProt P00519+Q13671); format: functional;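 also: biochemical TR-FRET dose-response test measuring inhibition of binding between Rin1 and Abl proteins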
Ras and Rab interactor 1/Tyrosine-protein kinase ABL1, sequence (P00519 whole entry): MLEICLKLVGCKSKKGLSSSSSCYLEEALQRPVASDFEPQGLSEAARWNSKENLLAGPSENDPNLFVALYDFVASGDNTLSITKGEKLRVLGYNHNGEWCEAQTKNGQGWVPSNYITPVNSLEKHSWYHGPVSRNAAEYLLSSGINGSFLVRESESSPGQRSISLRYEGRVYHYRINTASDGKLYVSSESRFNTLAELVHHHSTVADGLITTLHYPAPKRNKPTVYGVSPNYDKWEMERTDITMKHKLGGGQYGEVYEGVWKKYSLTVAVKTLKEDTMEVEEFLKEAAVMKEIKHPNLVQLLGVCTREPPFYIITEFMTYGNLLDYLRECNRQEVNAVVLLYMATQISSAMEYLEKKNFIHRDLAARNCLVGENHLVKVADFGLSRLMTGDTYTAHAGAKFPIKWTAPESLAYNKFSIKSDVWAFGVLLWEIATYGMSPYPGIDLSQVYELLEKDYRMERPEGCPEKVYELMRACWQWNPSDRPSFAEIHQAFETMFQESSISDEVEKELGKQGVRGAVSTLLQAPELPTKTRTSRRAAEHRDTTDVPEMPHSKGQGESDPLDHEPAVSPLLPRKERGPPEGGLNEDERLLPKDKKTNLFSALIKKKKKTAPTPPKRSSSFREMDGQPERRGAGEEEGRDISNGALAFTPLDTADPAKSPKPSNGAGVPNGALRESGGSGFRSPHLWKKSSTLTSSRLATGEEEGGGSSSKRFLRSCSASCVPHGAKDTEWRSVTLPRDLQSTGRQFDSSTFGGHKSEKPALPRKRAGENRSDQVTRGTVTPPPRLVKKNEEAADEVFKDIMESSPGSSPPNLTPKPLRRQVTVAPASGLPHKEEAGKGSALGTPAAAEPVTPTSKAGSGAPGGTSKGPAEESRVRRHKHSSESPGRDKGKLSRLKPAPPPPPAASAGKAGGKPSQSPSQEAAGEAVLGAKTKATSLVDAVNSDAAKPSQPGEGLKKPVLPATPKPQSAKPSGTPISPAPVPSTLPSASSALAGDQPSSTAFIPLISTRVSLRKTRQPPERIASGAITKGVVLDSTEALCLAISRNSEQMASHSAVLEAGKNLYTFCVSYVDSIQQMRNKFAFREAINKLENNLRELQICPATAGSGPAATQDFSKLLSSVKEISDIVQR
Ras and Rab interactor 1/Tyrosine-protein kinase ABL1, sequence (Q13671 whole entry): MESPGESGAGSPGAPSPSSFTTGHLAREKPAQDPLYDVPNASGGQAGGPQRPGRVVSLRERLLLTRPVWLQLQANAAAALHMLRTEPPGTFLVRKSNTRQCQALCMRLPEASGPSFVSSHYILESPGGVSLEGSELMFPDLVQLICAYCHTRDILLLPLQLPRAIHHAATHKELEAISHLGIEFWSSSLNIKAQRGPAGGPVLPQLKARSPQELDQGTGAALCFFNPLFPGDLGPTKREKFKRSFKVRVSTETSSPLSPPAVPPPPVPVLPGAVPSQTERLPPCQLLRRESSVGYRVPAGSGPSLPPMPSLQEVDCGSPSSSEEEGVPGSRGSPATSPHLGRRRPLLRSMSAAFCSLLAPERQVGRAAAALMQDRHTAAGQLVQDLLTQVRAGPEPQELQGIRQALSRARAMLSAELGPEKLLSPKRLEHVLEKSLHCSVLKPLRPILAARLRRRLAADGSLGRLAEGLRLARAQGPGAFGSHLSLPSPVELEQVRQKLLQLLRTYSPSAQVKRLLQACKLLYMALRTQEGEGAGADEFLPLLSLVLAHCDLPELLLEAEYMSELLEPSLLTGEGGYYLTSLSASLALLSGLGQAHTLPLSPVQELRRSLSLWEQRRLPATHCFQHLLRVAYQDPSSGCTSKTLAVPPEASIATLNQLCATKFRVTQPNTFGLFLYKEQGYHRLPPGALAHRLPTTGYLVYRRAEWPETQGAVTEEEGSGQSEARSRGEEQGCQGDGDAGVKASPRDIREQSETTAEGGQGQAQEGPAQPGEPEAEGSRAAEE

Adenosylmethionine-8-amino-7-oxononanoate aminotransferase, sequence (P9WQ81 whole entry): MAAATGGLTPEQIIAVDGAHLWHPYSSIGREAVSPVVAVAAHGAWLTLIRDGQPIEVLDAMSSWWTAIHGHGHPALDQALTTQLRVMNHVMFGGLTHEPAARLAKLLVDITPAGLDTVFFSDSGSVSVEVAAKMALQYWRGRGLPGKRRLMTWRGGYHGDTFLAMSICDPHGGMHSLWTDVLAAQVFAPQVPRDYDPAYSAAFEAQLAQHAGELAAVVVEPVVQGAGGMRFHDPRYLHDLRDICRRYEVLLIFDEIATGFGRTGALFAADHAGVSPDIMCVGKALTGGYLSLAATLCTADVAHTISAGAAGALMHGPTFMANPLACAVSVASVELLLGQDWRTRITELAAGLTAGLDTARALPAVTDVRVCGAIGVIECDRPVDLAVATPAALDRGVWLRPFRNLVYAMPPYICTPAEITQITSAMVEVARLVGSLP

Structure (SMILES): Cc1cc(C)n2nc(C(=O)Nc3cccnc3)nc2n1
- AC50 [1]: 4.85 µM (active)

Structure (SMILES): CCSc1nnc(NC(=O)C(C)(C(F)(F)F)C(F)(F)F)s1
- IC50 [2]: 3.47 µM (active)
- IC50 [3]: 2.82 µM (active)

Structure (SMILES): COC(=O)c1ccc(N2NC(=O)/C(=C/c3cc(OC)c(O)c(OC)c3)C2=O)cc1
- IC50 [4]: 81.6 µM (active)
- IC50 [5]: 18.5 µM (active)
- IC50 (Prothrombin): 27 µM (active)

Structure (SMILES): COc1ccc(Cl)cc1NC(=O)c1cccc([N+](=O)[O-])c1O
- EC50 [6]: > 53 µM (inactive)
- IC50 [7]: 2.55 µM (active)
- IC50 [8]: 8.13 µM (active)
- IC50 [9]: 46.5 µM (inactive)

Structure (SMILES): COc1ccc(S(=O)(=O)N(C)C[C@@H]2Oc3ncc(/C=C/c4ccccc4)cc3C(=O)N([C@@H](C)CO)C[C@@H]2C)cc1
- AC50 [10]: 2.03 µM (active)

Structure (SMILES): COc1ccc(C(=O)C[n+]2cccc(Br)c2)cc1
- IC50 [2]: 4.21 µM (active)
- IC50 [3]: 1.19 µM (active)

Structure (SMILES): O=c1[nH]n(CC2COC3(CCCCC3)O2)c(=O)c2ccccc12 (stereo unspecified)
- EC50 [11]: 79 µM (active)
- IC50 (H9c2): > 79 µM (inactive)
- IC50 [12]: 12.5 µM (inactive)
